According to ChEMBL document CHEMBL4602605, “Fluoroquinolones structural and medicinal developments (2013-2018): Where are we now?” (Bioorg Med Chem, 2019):
≈ marks a conversion by molar mass, not a printed value.

What was measured:
Assay type in all cases: functional
[1] = tested on: Pseudomonas aeruginosa; assay: Antimicrobial activity against Pseudomonas aeruginosa ATCC 9027 by agar well diffusion method
[2] = tested on: Staphylococcus aureus; assay: Antimicrobial activity against Staphylococcus aureus ATCC 6538 by agar dilution method
[3] = tested on: Escherichia coli; assay: Antimicrobial activity against Escherichia coli ATCC 8739 by agar dilution method
[4] = tested on: Staphylococcus aureus; assay: Antimicrobial activity against Staphylococcus aureus ATCC 25923 incubated for 18 to 24 hrs
[5] = tested on: Staphylococcus epidermidis; assay: Antimicrobial activity against methicillin-resistant Staphylococcus epidermidis 12-1 incubated for 18 to 24 hrs
[6] = tested on: Staphylococcus aureus; assay: Antimicrobial activity against methicillin-resistant Staphylococcus aureus ATCC 12-1 incubated for 18 to 24 hrs
[7] = tested on: Pseudomonas aeruginosa; assay: Antimicrobial activity against Pseudomonas aeruginosa ATCC 12-12 incubated for 18 to 24 hrs
[8] = tested on: Escherichia coli; assay: Antimicrobial activity against Escherichia coli ATCC 25922 incubated for 18 to 24 hrs
[9] = tested on: Aspergillus clavatus; assay: Antifungal activity against Aspergillus clavatus after overnight incubation by agar well diffusion method

`CCn1cc(C(=O)O)c(=O)c2cc(F)c(N3CCNC(C)C3)c(Cl)c21` (configuration not stated) gave an MIC [1] of 4.83 µg/mL (≈ 13.1 µM), an MIC [2] of 1.21 µg/mL (≈ 3.29 µM) and an MIC [3] of 0.3 µg/mL (≈ 0.816 µM).
`CCn1cc(C(=O)O)c(=O)c2cc(F)c(N3CCNCC3)c(Cl)c21` gave an MIC [1] of 32 µg/mL (≈ 90.5 µM), an MIC [2] of 4 µg/mL (≈ 11.3 µM) and an MIC [3] of 2 µg/mL (≈ 5.65 µM).
Work on `CCn1cc(C(=O)O)c(=O)c2cc(F)c(N3CCOCC3)cc21` yielded an MIC [1] of 128 µg/mL (≈ 400 µM), an MIC [2] of 0.32 µg/mL (≈ 0.999 µM) and an MIC [3] of 16 µg/mL (≈ 50 µM).
`CCn1cc(C(=O)O)c(=O)c2cc(F)c(N3CCCC3)cc21` was tested, and the MIC [1] was 16 µg/mL (≈ 52.6 µM), the MIC [2] was 0.25 µg/mL (≈ 0.822 µM) and the MIC [3] was 16 µg/mL (≈ 52.6 µM).
Compound `CCn1cc(C(=O)O)c(=O)c2cc(F)c(N3CCCCC3)cc21` has an MIC [1] of 1.28 µg/mL (≈ 4.02 µM), an MIC [2] of less than 0.125 µg/mL and an MIC [3] of 32 µg/mL (≈ 101 µM).
`CO/N=C1\CCN(c2c(F)cc3c(=O)c(C(=O)O)cn(C4CC4)c3c2OC)CC1NC(=O)CNC(=O)CN` (configuration not stated) gave an MIC [4] of 4 µg/mL (≈ 7.51 µM), an MIC [5] of 64 µg/mL (≈ 120 µM) and an MIC [6] greater than 128 µg/mL. It also gave an MIC [7] greater than 128 µg/mL and an MIC [8] of 16 µg/mL (≈ 30 µM).
Compound `CO/N=C1\CCN(c2c(F)cc3c(=O)c(C(=O)O)cn(C4CC4)c3c2OC)CC1NC(=O)[C@H](N)CC(C)C` (some centres not stated) has an MIC [4] of 0.25 µg/mL (≈ 0.47 µM), an MIC [5] of 64 µg/mL (≈ 120 µM) and an MIC [6] of 64 µg/mL (≈ 120 µM). It also gave an MIC [7] of 128 µg/mL (≈ 241 µM) and an MIC [8] of 4 µg/mL (≈ 7.52 µM).
Work on `CO/N=C1\CCN(c2c(F)cc3c(=O)c(C(=O)O)cn(C4CC4)c3c2OC)CC1NC(=O)[C@H](N)Cc1ccc(O)cc1` (some centres not stated) yielded an MIC [4] of 2 µg/mL (≈ 3.44 µM), an MIC [5] of 64 µg/mL (≈ 110 µM) and an MIC [6] greater than 128 µg/mL. It also gave an MIC [7] of 128 µg/mL (≈ 220 µM) and an MIC [8] of 16 µg/mL (≈ 27.5 µM).
`CCn1cc(C(=O)O)c(=O)c2cc(F)c(N3CCCC(C)C3)cc21` (configuration not stated) gave an MIC [1] of 1.28 µg/mL (≈ 3.85 µM), an MIC [2] of less than 0.125 µg/mL and an MIC [3] of 1.28 µg/mL (≈ 3.85 µM).
With `CCn1cc(C(=O)O)c(=O)c2cc(F)c(N3CCCCC3)c(Cl)c21` the MIC [1] was 128 µg/mL (≈ 363 µM), the MIC [2] was 2 µg/mL (≈ 5.67 µM) and the MIC [3] was 128 µg/mL (≈ 363 µM).
`CO/N=C1\CCN(c2c(F)cc3c(=O)c(C(=O)O)cn(C4CC4)c3c2OC)CC1NC(=O)C(C)NC(=O)C(C)N` (configuration not stated) gave an MIC [4] of 4 µg/mL (≈ 7.14 µM), an MIC [5] of 64 µg/mL (≈ 114 µM) and an MIC [6] greater than 128 µg/mL. It also gave an MIC [7] of 128 µg/mL (≈ 228 µM) and an MIC [8] of 32 µg/mL (≈ 57.1 µM).
`CCn1cc(C(=O)O)c(=O)c2cc(F)c(N3CCN(C)CC3)c(Cl)c21` gave an MIC [1] of 1 µg/mL (≈ 2.72 µM), an MIC [2] of 4 µg/mL (≈ 10.9 µM) and an MIC [3] of 2 µg/mL (≈ 5.44 µM).
With `CO/N=C1\CCN(c2c(F)cc3c(=O)c(C(=O)O)cn(C4CC4)c3c2OC)CC1NC(=O)[C@H](N)[C@H](C)O` (some centres not stated) the MIC [4] was 2 µg/mL (≈ 3.85 µM), the MIC [5] was 64 µg/mL (≈ 123 µM) and the MIC [6] was 128 µg/mL (≈ 246 µM). For the same compound, the MIC [7] was 64 µg/mL (≈ 123 µM) and the MIC [8] was 16 µg/mL (≈ 30.8 µM).
For `COc1c(N2CCN(C)CC2)c(F)cc2c(=O)c(C(=O)N/N=C\c3ccc(F)cc3)cn(C3CC3)c12`, the “inhibition zone (IZ)” value [9] was 11 mm.
With `CCn1cc(C(=O)O)c(=O)c2cc(F)c(N3CCCC3)c(Cl)c21` the MIC [1] was 8 µg/mL (≈ 23.6 µM), the MIC [2] was less than 0.125 µg/mL and the MIC [3] was 16 µg/mL (≈ 47.2 µM).
`CCC(C)[C@H](N)C(=O)NC1CN(c2c(F)cc3c(=O)c(C(=O)O)cn(C4CC4)c3c2OC)CC/C1=N\OC` (some centres not stated) was tested, and the MIC [4] was 0.5 µg/mL (≈ 0.941 µM), the MIC [5] was 64 µg/mL (≈ 120 µM) and the MIC [6] was 64 µg/mL (≈ 120 µM). For the same compound, the MIC [7] was 128 µg/mL (≈ 241 µM) and the MIC [8] was 8 µg/mL (≈ 15 µM).
With `CCn1cc(C(=O)O)c(=O)c2cc(F)c(N3CCNC(C)C3)c(Cl)c21.Cl` (configuration not stated) the MIC [1] was 128 µg/mL, the MIC [2] was 2 µg/mL and the MIC [3] was 31.2 µg/mL.
Work on `CCn1cc(C(=O)O)c(=O)c2cc(F)c(N3CCCC(C)C3)c(Cl)c21` (configuration not stated) yielded an MIC [1] of 128 µg/mL (≈ 349 µM), an MIC [2] of 2 µg/mL (≈ 5.45 µM) and an MIC [3] of 8 µg/mL (≈ 21.8 µM).
In the case of `N[C@@H]1CCN2c3c(F)cc4c(=O)c(C(=O)O)cn(C5CC5)c4c3CCCC[C@H]12`, the MIC [1] is reported as 16 µg/mL (≈ 41.5 µM), the MIC [2] is reported as 4 µg/mL (≈ 10.4 µM) and the MIC [3] is reported as 2 µg/mL (≈ 5.19 µM).
`CO/N=C1\CCN(c2c(F)cc3c(=O)c(C(=O)O)cn(C4CC4)c3c2OC)CC1NC(=O)[C@H]1CCCN1` (some centres not stated) showed an MIC [4] of 0.25 µg/mL (≈ 0.485 µM), an MIC [5] of 64 µg/mL (≈ 124 µM) and an MIC [6] of 64 µg/mL (≈ 124 µM). For the same compound, the MIC [7] was 64 µg/mL (≈ 124 µM) and the MIC [8] was 4 µg/mL (≈ 7.76 µM).
For `CO/N=C1\CCN(c2c(F)cc3c(=O)c(C(=O)O)cn(C4CC4)c3c2OC)CC1NC(=O)[C@H](N)Cc1ccccc1` (some centres not stated), the MIC [4] was 0.125 µg/mL (≈ 0.221 µM), the MIC [5] was 64 µg/mL (≈ 113 µM) and the MIC [6] was 64 µg/mL (≈ 113 µM). It also gave an MIC [7] of 128 µg/mL (≈ 226 µM) and an MIC [8] of 16 µg/mL (≈ 28.3 µM).
`CO/N=C1\CCN(c2c(F)cc3c(=O)c(C(=O)O)cn(C4CC4)c3c2OC)CC1NC(=O)[C@H](N)CO` (some centres not stated) was tested, and the MIC [4] was 1 µg/mL (≈ 1.98 µM), the MIC [5] was 64 µg/mL (≈ 127 µM) and the MIC [6] was 64 µg/mL (≈ 127 µM). For the same compound, the MIC [7] was 128 µg/mL (≈ 253 µM) and the MIC [8] was 16 µg/mL (≈ 31.7 µM).
